From patent publication US10947233B2, “Crystals of azabicyclic compound” (TAIHO PHARMACEUTICAL CO., LTD., priority 2015, dated 2021)

Columns and labels:
[1] = Blood concentration measurement test (oral administration to mice); assay type: in vivo, mice (Balb/cA); details: 50 mg/10 mL/kg; for AUC0-24 hr: mice (Balb/cA) under feeding conditions, Compound 1 in plasma, LC-MS/MS
Description: Respective solutions for administration (50 mg/10 mL/kg) of the Form I crystal and Form II crystal were produced. These solutions were administered orally to mice (Balb/cA) bred under feeding conditions at a volume of 10 mL/kg body weight using a sonde for oral administration. After the administration, the mice were returned to cages for mice to inspect their conditions. Water and feed were freely available for the mice in the cages. The mice were anesthetized with isoflurane 1, 2, 3, 4, 8 and 24 hours after the administration and 60 μL of blood was collected from their orbital sinuses using capillary blood collection tubes. The collected blood was cooled on ice and centrifuged to separate plasma.
AUCs0-24 hrwere calculated with a linear-log trapezoid method using Phoenix WinNonlin (v6.3.0), software from Pharsight, from the concentrations of Compound 1 in plasma samples measured with Multiple Reaction Monitoring method using LC-MS/MS.
Therefore, the Form II crystal according to the present invention is remarkably excellent in oral absorbability and useful as an oral pharmaceutical composition.

[2] = Solid stability test (accelerated test), related substances by HPLC; assay type: physicochemical
Description: The solid stability of the Form II crystal obtained in Example 1 after storage of 1, 3 and 6 months at 40° C.±2° C./75% RH±5% RH was measured under the following conditions. • Storage conditions: 40° C.±2° C./75% RH±5% RH • Measurement points: 1, 3 and 6 month • Storage amount: 6 g • Storage container: doubled plastic bags, banding bands+plastic drums • Preparation method of sample solution: 100 mg of the Form II crystal is accurately measured, a mixed solution of acetonitrile-water (4:1) is added to dissolve the crystal (sonicated to dissolve, if difficult to dissolve), and the solution is diluted in measuring cylinder to exact 200 mL total. 10 mL of this solution is accurately measured, and a mixed solution of acetonitrile-water (1:1) is added to exact 20 mL to be used as a sample solution.
HPLC was performed in the following conditions. • Column: general foundation Chemicals Evaluation and Research Institute, Japan L-column2 ODS • Particle size: 3 μm, Inner diameter: 4.6 mm, Length: 15 cm • Measurement wavelength: 220 nm • Mobile phase: Mobile phase A: 10 mmol/L phosphate buffer (pH6.9), • Mobile phase B: acetonitrile • Flow rate: about 1.0 mL/min
The concentration gradient is controlled by changing the mixing ratio of mobile phases A and B as follows, when feeding the liquid.
The amounts of related substances in the sample solutions were measured and evaluated by HPLC, of which result is shown in Table 3.
The related substances are defined as substances detected other than 3-ethyl-4-{3-isopropyl-4-(4-(1-methyl-1H-pyrazol-4-yl)-1H-imidazol-1-yl)-1H-pyrazolo[3,4-b]pyridin-1-yl}benzamide.

AUC0-24 hr [1] [µM·h] | AUC0-24 hr of the Form II crystal relative to the Form I crystal ([1]; mice (Balb/cA)) | Related substances ([2]; storage 1 month at 40° C.±2° C./75% RH±5% RH) | Related substances ([2]; storage 3 months at 40° C.±2° C./75% RH±5% RH) | Related substances ([2]; storage 6 months at 40° C.±2° C./75% RH±5% RH) | Structure (SMILES)
59.64 | – | – | – | – | CCc1cc(C(N)=O)ccc1-n1nc(C(C)C)c2c(-n3cnc(-c4cnn(C)c4)c3)ccnc21 [Form I crystal, 3-ethyl-4-{3-isopropyl-4-(4-(1-methyl-1H-pyrazol-4-yl)-1H-imidazol-1-yl)-1H-pyrazolo[3,4-b]pyridin-1-yl}benzamide]
171.33 | approximately 3 times | less than 0.1% | less than 0.1% | less than 0.1% | CCc1cc(C(N)=O)ccc1-n1nc(C(C)C)c2c(-n3cnc(-c4cnn(C)c4)c3)ccnc21 [Form II crystal, 3-ethyl-4-{3-isopropyl-4-(4-(1-methyl-1H-pyrazol-4-yl)-1H-imidazol-1-yl)-1H-pyrazolo[3,4-b]pyridin-1-yl}benzamide]
